Experiments:
[1] = molecular target: T1, GPR6 (Homo sapiens, UniProt P46095); assay: GPR6 antagonist functional cAMP assay (LANCE Ultra cAMP TR-FRET, CHO cells stably expressing GPR6); format: cell-based
T1 construct: expressed in transfected cells; host or cells: CHO cells
Summary of the method: (§1)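 Compounds, at 0.1% final DMSO, acted on the cells for 45 minutes at 37 °C in the presence of the phosphodiesterase inhibitor Ro 20-1724 (150 μM). After lysis and detection, plates were shaken 1 h at room temperature and emission at 665 nm was recorded. Normalized data gave IC50 values.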

[2] = molecular target: T2, GPR3 (Homo sapiens, UniProt P46089); assay: GPR3 antagonist functional cAMP assay (LANCE Ultra cAMP TR-FRET, CHO cells stably expressing GPR3); format: cell-based
T2 construct: expressed in transfected cells; host or cells: CHO cells
T2 sequence (P46089 whole entry, species assumed): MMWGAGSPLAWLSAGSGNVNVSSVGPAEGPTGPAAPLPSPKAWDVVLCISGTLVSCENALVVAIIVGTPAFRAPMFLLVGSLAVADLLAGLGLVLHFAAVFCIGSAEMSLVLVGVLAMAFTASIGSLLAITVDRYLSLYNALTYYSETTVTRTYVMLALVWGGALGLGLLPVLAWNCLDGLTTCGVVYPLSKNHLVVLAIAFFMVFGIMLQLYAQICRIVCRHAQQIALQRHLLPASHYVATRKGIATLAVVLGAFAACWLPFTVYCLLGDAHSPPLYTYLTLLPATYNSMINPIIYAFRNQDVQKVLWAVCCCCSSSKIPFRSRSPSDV
Summary of the method: as §1

[3] = procedure as described in Example 24
[4] = CHO cells stably expressing GPR6, cAMP assay (Example 24)
[5] = CHO cells stably expressing GPR3, cAMP assay (Example 24)
[6] = CHO cells stably expressing GPR6, cAMP assay
[7] = CHO cells stably expressing GPR3, cAMP assay

T1 sequence (P46095 whole entry): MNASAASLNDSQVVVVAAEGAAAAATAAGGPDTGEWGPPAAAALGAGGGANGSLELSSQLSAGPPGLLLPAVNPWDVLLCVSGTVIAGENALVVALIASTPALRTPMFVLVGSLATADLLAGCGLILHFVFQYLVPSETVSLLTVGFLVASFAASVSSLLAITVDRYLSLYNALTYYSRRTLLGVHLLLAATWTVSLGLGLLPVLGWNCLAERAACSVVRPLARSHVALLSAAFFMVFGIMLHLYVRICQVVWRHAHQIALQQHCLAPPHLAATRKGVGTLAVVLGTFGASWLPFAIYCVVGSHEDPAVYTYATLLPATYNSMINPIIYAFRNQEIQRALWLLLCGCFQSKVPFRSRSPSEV

Compound	IC50 [1, 4] [µM]	IC50 [2, 5] [µM]	IC50 ([1]; procedure of Example 24) [µM]	IC50 ([2]; procedure of Example 24) [µM]	further results
CC(=O)N1CCc2nc(N3CCC(Oc4ccc(F)cc4F)CC3)c(-c3c(C)nn(C4CCCCO4)c3C)nc2C1 (stereo not shown) [Compound 47, 1-{2-[4-(2,4-difluorophenoxy)piperidin-1-yl]-3-[3,5-dimethyl-1-(oxan-2-yl)-1H-pyrazol-4-yl]-5H,6H,7H,8H-pyrido[3,4-b]pyrazin-6-yl}ethan-1-one]					IC50 [1, 3]: 1 to 30 µM; IC50 [2, 3]: 1 to 30 µM
CCS(=O)(=O)N1CCc2nc(N3CCC(Oc4ccc(F)cc4F)CC3)c(-c3cnn(C4CCCCO4)c3)nc2C1 (stereo not shown) [Compound 177, 4-(2,4-difluorophenoxy)-1-[6-(ethanesulfonyl)-3-[1-(oxan-2-yl)-1H-pyrazol-4-yl]-5H,6H,7H,8H-pyrido[3,4-b]pyrazin-2-yl]piperidine]	0.1 to 1	1 to 30			
CC(C)(O)[C@@H](O)c1cc2nc(N3CCN(Cc4ccc(F)cc4F)CC3)c(-c3cnn(C(F)F)c3)nc2cn1 (single isomer, unassigned) [Compound 397]	< 0.1	1 to 30			
COc1ccccc1CN1CCN(c2nc3c(nc2-c2cnn(C)c2)CN(C(C)=O)CC3)CC1 [Compound 509, 1-(2-{4-[(o-methoxyphenyl)methyl]-1-piperazinyl}-3-(1-methyl-4-pyrazolyl)-5,6,7,8-tetrahydro-1,4,6-triaza-6-naphthyl)-1-ethanone]					IC50 [1, 6]: ≥ 30 µM; IC50 [2, 7]: 1 to 30 µM
CC(=O)N1CCc2nc(N3CCC(Oc4ccc(F)cc4F)CC3)c(-c3ccnc(N)n3)nc2C1 [Compound 475, 1-[3-(2-aminopyrimidin-4-yl)-2-[4-(2,4-difluorophenoxy)piperidin-1-yl]-5H,6H,7H,8H-pyrido[3,4-b]pyrazin-6-yl]ethan-1-one]	< 0.1	1 to 30			
CC(C)(O)[C@@H](O)c1cc2nc(N3CCC(Cc4ccc(F)cc4F)CC3)c(-c3cnn(CF)c3)nc2cn1 (single isomer, unassigned) [Compound 727]			0.1 to 1	0.1 to 1	
CC(C)(O)C(C)(O)c1cc2nc(-c3cnn(C(F)F)c3)c(N3CCN(Cc4ccccc4F)CC3)nc2cn1 (stereo not shown) [Compound 684, 2-{2-[1-(difluoromethyl)-4-pyrazolyl]-3-{4-[(o-fluorophenyl)methyl]-1-piperazinyl}-1,4,6-triaza-7-naphthyl}-3-methyl-2,3-butanediol]			0.1 to 1	1 to 30	
Fc1ccc(CN2CCN(c3nc4cnccc4nc3-c3ncc[nH]3)CC2)c(Cl)c1 [Compound 65, 1-[(2-chloro-4-fluorophenyl)methyl]-4-[2-(1H-imidazol-2-yl)pyrido[3,4-b]pyrazin-3-yl]piperazine]	1 to 30	0.1 to 1			
CC(=O)N1CCc2nc(N3CCN(Cc4ccc(C#N)cc4F)CC3)c(-c3cnn(C)c3)nc2C1 [Compound 356, 4-({4-[6-acetyl-3-(1-methyl-1H-pyrazol-4-yl)-5H,6H,7H,8H-pyrido[3,4-b]pyrazin-2-yl]piperazin-1-yl}methyl)-3-fluorobenzonitrile]			1 to 30	1 to 30	
CC(=O)N1CCc2nc(N3CCC(Oc4ccc(F)cc4F)CC3)c(-c3cnn(C4CN(C)C4)c3)nc2C1 [Compound 212, 1-{2-[4-(2,4-difluorophenoxy)piperidin-1-yl]-3-[1-(1-methylazetidin-3-yl)-1H-pyrazol-4-yl]-5H,6H,7H,8H-pyrido[3,4-b]pyrazin-6-yl}ethan-1-one]	1 to 30	1 to 30			
CC(=O)N1CCc2nc(N3CCC(Oc4ccc(F)cc4F)CC3)c(C3CCN(S(C)(=O)=O)C3)nc2C1 (stereo not shown) [Compound 543, 1-{2-[4-(2,4-difluorophenoxy)-1-piperidyl]-3-(1-mesyl-3-pyrrolidinyl)-5,6,7,8-tetrahydro-1,4,6-triaza-6-naphthyl}-1-ethanone]					IC50 [1, 6]: 1 to 30 µM; IC50 [2, 7]: 1 to 30 µM
COCC(C)(O)c1cc2nc(N3CCC(Oc4ccc(F)cc4F)CC3)c(-c3cnn(C)c3)nc2cn1 (stereo not shown) [Compound 567, 2-{2-[4-(2,4-difluorophenoxy)-1-piperidyl]-3-(1-methyl-4-pyrazolyl)-1,4,6-triaza-7-naphthyl}-1-methoxy-2-propanol]					IC50 [1, 6]: 0.1 to 1 µM; IC50 [2, 7]: 1 to 30 µM
Cn1cc(-c2nc3cnccc3nc2N2CCN(CC3CCOCC3)CC2)cn1 [Compound 242, 1-[3-(1-methyl-1H-pyrazol-4-yl)pyrido[3,4-b]pyrazin-2-yl]-4-[(oxan-4-yl)methyl]piperazine]	≥ 30	1 to 30			
CC(C)n1cc(-c2nc3cnc(C(O)C(C)(C)O)cc3nc2N2CCN(Cc3ccc(F)cc3F)CC2)cn1 (stereo not shown) [Compound 298, 1-(2-{4-[(2,4-difluorophenyl)methyl]piperazin-1-yl}-3-[1-(propan-2-yl)-1H-pyrazol-4-yl]pyrido[3,4-b]pyrazin-7-yl)-2-methylpropane-1,2-diol]			0.1 to 1	1 to 30	
CC(=O)N1CCc2nc(N3CCCC(Oc4cc(F)ccc4F)C3)c(-c3cnn(C)c3)nc2C1 (stereo not shown) [Compound 339, 1-{2-[3-(2,5-difluorophenoxy)piperidin-1-yl]-3-(1-methyl-1H-pyrazol-4-yl)-5H,6H,7H,8H-pyrido[3,4-b]pyrazin-6-yl}ethan-1-one]			≥ 30	0.1 to 1	
CCS(=O)(=O)N1CCc2nc(N3CCC(Oc4ccc(F)cc4F)CC3)c(-c3cn[nH]c3)nc2C1 [Compound 123, 4-(2,4-difluorophenoxy)-1-[6-(ethanesulfonyl)-3-(1H-pyrazol-4-yl)-5H,6H,7H,8H-pyrido[3,4-b]pyrazin-2-yl]piperidine]	0.1 to 1	1 to 30			
CC(C)(O)[C@](C)(O)c1cc2nc(N3CCN(Cc4ccccc4F)CC3)c(-c3cnn(CF)c3)nc2cn1 (single isomer, unassigned) [Compound 675]			0.1 to 1	1 to 30	
CC(=O)N1CCc2nc(N3CCN(Cc4cccc(F)c4F)CC3)c(-c3cnn(C)c3)nc2C1 [Compound 320, 1-(2-{4-[(2,3-difluorophenyl)methyl]piperazin-1-yl}-3-(1-methyl-1H-pyrazol-4-yl)-5H,6H,7H,8H-pyrido[3,4-b]pyrazin-6-yl)ethan-1-one]			1 to 30	1 to 30	
COc1cnnc(-c2nc3c(nc2N2CCC(Oc4ccc(F)cc4F)CC2)CCN(C(C)=O)C3)c1 [Compound 192, 1-{2-[4-(2,4-difluorophenoxy)piperidin-1-yl]-3-(5-methoxypyridazin-3-yl)-5H,6H,7H,8H-pyrido[3,4-b]pyrazin-6-yl}ethan-1-one]	1 to 30	1 to 30			
COCCN1CCc2nc(N3CCC(Oc4ccc(F)cc4F)CC3)c(-c3cn[nH]c3)nc2C1 [Compound 143, 4-(2,4-difluorophenoxy)-1-[6-(2-methoxyethyl)-3-(1H-pyrazol-4-yl)-5H,6H,7H,8H-pyrido[3,4-b]pyrazin-2-yl]piperidine]	0.1 to 1	1 to 30			
1-[3-(1-methyl-4-pyrazolyl)-2-{4- [(o-nitrophenyl)methyl]-1- piperazinyl}-5,6,7,8-tetrahydro- 1,4,6-triaza-6-naphthyl]-1- ethanone [Compound 527]					IC50 [1, 6]: 0.1 to 1 µM; IC50 [2, 7]: 1 to 30 µM
CCn1cc(-c2nc3cnc(C(=O)C(C)(C)O)cc3nc2N2CCC(Oc3ccc(F)cc3F)CC2)cn1 [Compound 651, 1-{2-[4-(2,4-difluorophenoxy)-1-piperidyl]-3-(1-ethyl-4-pyrazolyl)-1,4,6-triaza-7-naphthyl}-2-hydroxy-2-methyl-1-propanone]			0.1 to 1	1 to 30	
CC(=O)N1CCc2nc(N3CCC(Oc4ccc(F)cc4F)CC3)c(-c3cnsc3)nc2C1 [Compound 8, 1-{2-[4-(2,4-difluorophenoxy)piperidin-1-yl]-3-(1,2-thiazol-4-yl)-5H,6H,7H,8H-pyrido[3,4-b]pyrazin-6-yl}ethan-1-one]					IC50 [1, 3]: 0.1 to 1 µM; IC50 [2, 3]: 1 to 30 µM
Cn1cc(-c2nc3c(O)nccc3nc2N2CCC(Oc3ccc(F)cc3F)CC2)cn1 [Compound 376, 2-[4-(2,4-difluorophenoxy)piperidin-1-yl]-3-(1-methyl-1H-pyrazol-4-yl)pyrido[3,4-b]pyrazin-5-ol]			1 to 30	1 to 30	
CC(C)(O)C(=O)c1cc2nc(N3CCN(Cc4ccccc4F)CC3)c(-c3cnn(CF)c3)nc2cn1 [Compound 608, 1-{3-[1-(fluoromethyl)-4-pyrazolyl]-2-{4-[(o-fluorophenyl)methyl]-1-piperazinyl}-1,4,6-triaza-7-naphthyl}-2-hydroxy-2-methyl-1-propanone]					IC50 [1, 6]: 0.1 to 1 µM; IC50 [2, 7]: 1 to 30 µM
Cn1cc(-c2nc3cc(C(=O)C(C)(C)O)ncc3nc2N2CCN(Cc3ccc(F)cc3F)CC2)cn1 [Compound 563, 1-(3-{4-[(2,4-difluorophenyl)methyl]-1-piperazinyl}-2-(1-methyl-4-pyrazolyl)-1,4,6-triaza-7-naphthyl)-2-hydroxy-2-methyl-1-propanone]					IC50 [1, 6]: 0.1 to 1 µM; IC50 [2, 7]: 1 to 30 µM
CC(=O)N1CCc2nc(N3CCC(Oc4ccc(F)cc4F)CC3)c(C3CCOCC3)nc2C1 [Compound 236, 1-{2-[4-(2,4-difluorophenoxy)piperidin-1-yl]-3-(oxan-4-yl)-5H,6H,7H,8H-pyrido[3,4-b]pyrazin-6-yl}ethan-1-one]	1 to 30	1 to 30			
CC(C)(O)[C@H](O)c1cc2nc(N3CCC(=Cc4ccc(F)cc4F)CC3)c(-c3cnn(C(F)F)c3)nc2cn1 (single isomer, unassigned) [Compound 779]			< 0.1	1 to 30	
COc1cnc(-c2nc3c(nc2N2CCC(Oc4ccc(F)cc4F)CC2)CCN(C(C)=O)C3)nc1 [Compound 191, 1-{2-[4-(2,4-difluorophenoxy)piperidin-1-yl]-3-(5-methoxypyrimidin-2-yl)-5H,6H,7H,8H-pyrido[3,4-b]pyrazin-6-yl}ethan-1-one]	1 to 30	1 to 30			

From US20260042755A1, “GPR6 INVERSE AGONISTS” (MapLight Therapeutics, Inc., priority 2022, published 2026)
